# Experimental data published in patent US20210128537A1, “T-TYPE CALCIUM CHANNEL MODULATORS AND METHODS OF USE THEREOF” (Praxis Precision Medicines, inc., priority 2016, published 2021).
# How the values were obtained:
# Format in all cases: in vivo, rat
# [1] = tested on: post-SE rats; test: Morris water maze in post-SE rats; conditions: Z944 60 mg/kg/day, levetiracetam 200 mg/kg/day for 4 weeks
# Procedure: (§1) All behavioural tests were performed in a light-controlled (˜110 lux), closed, quiet and clean room in the. Behavioural testing was performed in a blinded manner to the treatment groups. All of the behavioural tests were video recorded for future analysis. OF, EPM and MWM sessions were filmed using a digital camera mounted above the centre of the arena, which was connected to a computer for the recording and objective analysis of digitized behavioural tests (EthoVision 3.0.15, Noldus). The first behavioural test was performed one week after the last EEG recording. The different behavioural tests/session were performed 24 hours apart from each other. All tests were scored by an experienced observer who was blind to the experimental conditions of the animals.
# The MWM is a circular black PVC plastic pool of 160 cm diameter which is filled to a depth of either 2.5 cm above a 10 cm diameter hidden platform water at 25±1° C. The platform is located in the centre of the South-West quadrant during the first 3 sessions and changed to North-East quadrant for the remaining sessions. Visual cues are placed in the main 4 cardinal points, consisting of large black and white symbols that serve as orientation landmarks for the rats. […] The latency to find the escape platform, speed and strategic path used by the animal to locate the platform are recorded. […]
# [2] = tested on: post-SE rats; test: Forced swim test in post-SE rats; conditions: Z944 60 mg/kg/day for 4 weeks, p<0.05
# Procedure: as §1
# The FST was performed in a clear Plexiglas cylinder (50 cm long×30 cm diameter) filled with water (25±1° C.). The FST was divided into a 15-min training session and a 5-min test session performed 24 h later, as previously described. Immobility time and swimming time were analysed.
# [3] = tested on: Wistar rats, amygdala kindling; test: Progression of seizures in the amygdala kindling model
# Procedure: Animals were implanted with EEG recording electrodes and with a stimulating bipolar electrode in the left basolateral amygdaloid nucleus using the coordinates AP±3.0 mm, ML±5.9 mm, DV±6.0 mm. The after discharge threshold (ADT) for each animal was determined by administering a stimulation (frequency=60.1 Hz; duration=1000 μs) at one minute intervals until a seizure was clicited. The amplitude of the stimulation was started at 0.02 mA with increments of 0.02 mA; the stimulations were stopped when the animal experienced a seizure of ≥6 second duration, or if the amplitude of 0.40 mA was reached without the occurrence of a seizure. […] Kindling was performed twice a day for five days per week with an endpoint of 30 stimulations or until the animal presented five class V seizures (referred to as fully kindled). The seizure severity was classified from 0 (less severe) to V (most severe) according to the Racine Scale (Racine, 1972b). Sham kindled animals were handled the same way as the kindled animals, although no electrical stimulation was applied. An animal is classified as fully kindled once it has experienced 5 class V seizures.
# Testing Z944 in the progression of seizures in the amygdala kindling model Wistar rats underwent surgery to implant bipolar stimulation electrodes and EEG recording electrodes as described above. ADT was determined as described for the anti-seizure study. Animals were randomly assigned to four different cohorts; Cohort 1: kindled sham+vehicle (n=8); Cohort 2: kindled+vehicle (n=6); Cohort 3: kindled+ETX (100 mg/kg, n=6) and Cohort 4: kindled+Z944 (30 mg/kg, n=7). Thirty minutes prior each kindling stimulation, the animals received an IP injection of vehicle, ETX, or Z944 administered at a dose volume of 5 ml/kg up to an endpoint of 30 stimulations and the seizure class elicited and seizure duration was recorded. […] Adverse effects were recorded every 15 minutes from the drug administration until 90 minutes after. An investigator blinded to the drug treatment analyzed all EEG recordings. The seizure class each stimulation elicited was recorded and averaged and the duration of the primary and total seizures were recorded.
# [4] = tested on: post-SE rats; test: Sucrose preference test in post-SE rats; conditions: Z944 60 mg/kg/day for 4 weeks, p<0.05
# Procedure: as §1
# The SPT was used to assess depressive-like behaviour. The animals remained to stay in their same home cage. One hour before the start of the test, the animals were given up to 0.5 ml of the testing 2% sucrose to ensure that the animals would drink the sucrose solution. The animals were presented with two bottles, one filled with water and the other one filled with 2% sucrose in water for 24 hours. On both tests, bottle position was randomised to avoid position preference. Total fluid intake and percentage preference for sucrose were recorded.
smiles,measurement,setting,value
CC(C)(C)NC(=O)CN1CCC(CNC(=O)c2cc(F)cc(Cl)c2)CC1 [Z944],time to find the hidden platform (cognition),[1],Improves Cognition
same,forced swim test immobility time,[2],vehicle had an increased immobility time when compared to both sham groups and post-SE+Z944 group
same,"number of stimulations to evoke a class III, IV or V seizure","[3]; 30 mg/kg IP 30 min prior each stimulation, vs vehicle",required significantly more stimulations
same,number of treated animals that reached the fully kindled state,"[3]; 30 mg/kg IP, n=7, up to 30 stimulations",one
same,number of stimulations to reach class V,"[3]; 30 mg/kg IP, vs ETX 100 mg/kg (p<0.01)",required more stimulations
same,number of stimulations to reach the fully kindled state,"[3]; 30 mg/kg IP, vs vehicle (p<0.01) and ETX (p<0.05)",required significantly more stimulations
same,sucrose preference,[4],vehicle had a reduced sucrose preference compared to both sham groups and post-SE+Z944 group
